Key:
[1] = system: UCP1 mRNA; assay: UCP1 mRNA levels in BAT (dot-blot); type: in vivo; conditions: rats on both vitamin A supplemented and normal diets, 0.75 mg/kg i.p., 4 h (FIG. 4)
Method: (§1) Rats were fed a diet containing either, 8,643 IU retinol/kg diet (normal diet) or 430,431 IU retinol/kg diet (vitamin A supplemented diet) for a period of 8 weeks. Food and water were provided ad libitum. Body weights and food intake were recorded weekly. Basal whole body oxygen consumption was measured before starting the diet and then after week 3, 6 and 8 on the diet. At the end of 8 weeks, half the rats from each group were challenged with a single dose of the β3 adrenergic specific agonist, CGP-12177 (prepared in pyrogen-free saline, available from Ciba-Geigy, Summit, […].) or saline. The stimulated whole body oxygen consumption was measured and the animals sacrificed 4 hours after injection. Total cellular RNA was extracted using a modification of the method described in Chomczynski and Sacchi, “Single step method of RNA isolation by acid guanidinium thiocyanate-phenolchloroform extraction”, Analytical Biochemistry 162:156-159 (1987). […] The RNA was quantified by spectrophotometric absorption at 260 nm using multiple dilutions of each sample. […] The latent image was scanned using a Phosphor Imager (Molecular Dynamic, Sunnyvale, Calif.) and analyzed by Image Quant Software (Molecular Dynamics). Intensities per μg total cellular RNA were calculated by comparison to internal laboratory standards of WAT or BAT total RNA present on each nylon membrane.

[2] = system: leptin mRNA; assay: Leptin mRNA levels in PWAT (dot-blot); type: in vivo, rats; conditions: CGP-12177 0.75 mg/kg i.p.
Method: as §1

[3] = system: β-actin mRNA; assay: β-actin mRNA levels in BAT; type: in vivo, rats; conditions: CGP-12177 0.75 mg/kg i.p., 4 h, mean ± SE
Method: as §1

[4] = system: β3-adrenergic receptor mRNA; assay: β3-adrenergic receptor mRNA levels in PWAT and BAT; type: in vivo, rats; conditions: for β3AR mRNA levels, BAT / β3AR mRNA levels, PWAT: CGP-12177 0.75 mg/kg i.p., 4 h, mean ± SE
Method: (§2) Rats were fed a diet containing either, 8,643 IU retinol/kg diet (normal diet) or 430,431 IU retinol/kg diet (vitamin A supplemented diet) for a period of 8 weeks. Food and water were provided ad libitum. Body weights and food intake were recorded weekly. Basal whole body oxygen consumption was measured before starting the diet and then after week 3, 6 and 8 on the diet. At the end of 8 weeks, half the rats from each group were challenged with a single dose of the β3 adrenergic specific agonist, CGP-12177 (prepared in pyrogen-free saline, available from Ciba-Geigy, Summit, N.J.) (0.75 mg/kg, i.p.) or saline. The stimulated whole body oxygen consumption was measured and the animals sacrificed 4 hours after injection.
(§3) Total cellular RNA was extracted using a modification of the method described in Chomczynski and Sacchi, “Single step method of RNA isolation by acid guanidinium thiocyanate-phenolchloroform extraction”, Analytical Biochemistry 162:156-159 (1987). The integrity of the isolated RNA was verified using 1% agarose gels stained with ethidium bromide. The RNA was quantified by spectrophotometric absorption at 260 nm using multiple dilutions of each sample.
(§4) For dot-blot analysis, multiple concentrations of RNA were immobilized on nylon membranes using a dot-blot apparatus (Biorad, Richmond, Calif.). The membranes were baked at 80° C. for 2 hrs. The baked membranes were prehybridized using 25 mM potassium phosphate, 750 mM NaCl, 75 mM Na citrate, 5× Denhardt's solution, 50 μg/ml denatured salmon sperm DNA, and 50% formamide. After incubation for 14-16 hrs. at 42° C, the membranes were hybridized with ^32P labeled probes in the prehybridization buffer plus 10% dextran sulfate. After hybridization for 14-16 hr at 42° C., the membranes were washed and exposed to a phosphor imaging screen for 48 hrs. The latent image was scanned using a Phosphor Imager (Molecular Dynamic, Sunnyvale, Calif.) and analyzed by Image Quant Software (Molecular Dynamics). Intensities per μg total cellular RNA were calculated by comparison to internal laboratory standards of WAT or BAT total RNA present on each nylon membrane.

[5] = system: UCP2 mRNA; assay: UCP2 mRNA levels in PWAT and BAT; type: in vivo, rats; conditions: CGP-12177 0.75 mg/kg i.p., 4 h, mean ± SE
Method: as §2, §3, §4

[6] = Whole body oxygen consumption (basal and CGP-12177-stimulated); type: in vivo; conditions: rats on normal and vitamin A supplemented diets, 0.75 mg/kg i.p., vs saline injected rats
Method: as §2
O2 consumption was assessed on up to four rats simultaneously with an Oxyscan analyzer (OXS-4; Amniotic Electronics, Columbus, Ohio). All experiments were performed on conscious unanesthetized rats during the light phase of the light-dark cycle. Flow rates were 2 L/min with a 30 second sampling time at 5 minute intervals. The temperature was maintained at 26° C. Results were expressed on a mass-dependent basis (ml/min/kg^0.67). The cumulative increase in the CGP12177-stimulated oxygen consumption was calculated as the average increase over baseline from 30 min to 110 min, post injection.

CC(C)(C)NCC(O)COc1cccc2[nH]c(=O)[nH]c12 (stereo not shown) [CGP-12177]
UCP1 mRNA levels in BAT upon administration of CGP-12177 [1]: significant but similar increase | Suppression of leptin mRNA levels in PWAT ([2]; rats on normal diet, 4 hr (FIG. 2)): 27% | Effect on leptin mRNA levels in PWAT ([2]; rats on vitamin A supplemented diet, 4 hr, vs saline on same diet): no further effect | β-actin mRNA levels, BAT ([3]; Normal Diet): 98.6 ± 7.4 arbitrary units | β-actin mRNA levels, BAT ([3]; Vitamin A supplemented diet): 93.8 ± 8.0 arbitrary units | Down regulation of β3-adrenergic receptor mRNA levels in BAT ([4]; CGP-12177 for 4 h, rats on vitamin A supplemented and normal diets, vs saline treated): 50% | β3AR mRNA levels, BAT ([4]; Normal Diet): 50.9 ± 3.3 arbitrary units | β3AR mRNA levels, PWAT ([4]; Normal Diet): 105 ± 6.0 arbitrary units | β3AR mRNA levels, BAT ([4]; Vitamin A supplemented diet): 59.8 ± 7.9 arbitrary units | β3AR mRNA levels, PWAT ([4]; Vitamin A supplemented diet): 112 ± 11 arbitrary units | UCP2 mRNA levels, BAT ([5]; Normal Diet): 93.4 ± 12.2 arbitrary units | UCP2 mRNA levels, PWAT ([5]; Normal Diet, 0.75 mg/kg): 109 ± 10 arbitrary units | UCP2 mRNA levels, PWAT ([5]; Normal Diet, listed as CGP12177, 0.75 mg/kg): no effect | UCP2 mRNA levels, BAT ([5]; Vitamin A supplemented diet): 94 ± 8.9 arbitrary units | UCP2 mRNA levels, PWAT ([5]; Vitamin A supplemented diet): 110 ± 10 arbitrary units | Oxygen consumption upon administration of CGP-12177 [6]: rapid and sustained increase
